Assay results as given in US20020111314A1, “Novel stimulation of gene expression and protein synthesis of heat shock protein 72/73 (Hsp 70)” (The Trustees of Columbia University, priority 1995, published 2002).
Square brackets hold non-standard residues; d marks the D form. Peptide text beside a SMILES is read from it. Nle = CCCC[C@H](N)C(=O)O

Columns and labels:
Hsp70 [1] = assay: Hsp70 induction in HepG2 cells ([3H]-leucine labeling, denaturing immunoprecipitation); format: cell-based, human; details: for Hsp70 levels after removal of ALLN: 4-hour preincubation
Experimental: HepG2 cells were grown up to 95% confluence and then preincubated for 4 hours in a 37° C. incubator with serum-free minimum essential medium (MEM), followed by radiolabeling with 3H-leucine (150 μCi/ml) dissolved in serum-free, leucine-free medium. Preincubation and labeling medium each contained 1.5% bovine serum albumin (BSA) plus different concentrations of ALLN as indicated. After labeling, cells were collected and lysed, and Hsp70 was immunoprecipitated under denaturing conditions as described under Experimental Details. Cell lysates containing an equal amount of TCA-insoluble radioactivity were used for immunoprecipitation. (A): The immunoprecipitates were analyzed by sodium dodecyl sulfate-polyacryamide gel electrophoresis (SDS-PAGE) and fluorography. Numbers on the left-hand side denote molecular markers. (B): The Hsp70 radioactivity was quantitated by scintillation counting and plotted. All the values were presented as means±SD from three individual culture dishes.
FIGS. 3A-3B: Effects of the other protease inhibitors on Hsp70 biosynthesis in HepG2 cells. HepG2 cells were preincubated in serum-free MEM containing either 1.5% BSA alone (Control), or BSA plus 40 μg/ml of ALLN, 40 μg/ml of ALLM, 50 μg/ml of leupeptin, 50 μg/ml of pepstatin A, 25 μg/ml of E-64d, 1 mM of phenylmethylsulfonyl fluoride (PMSF), 100 KIU/ml of apotinin, 1 mM of Benzamidine (Benz), 200 μM of calpain inhibitor peptide (CIP). Radiolabeling (in the presence of protease inhibitors), lysis and immunoprecipitation were performed as described in FIG. 1. The Hsp70 specific radioactivity (A) and the amount of total incorporated radioactivity (TCA-cpm) (B) were compared with each other. All the values were presented as the mean±SD from three individual culture dishes.
FIGS. 9A-9B: Effects of proteasome inhibitors on Hsp70 induction. HepG2 cells were preincubated with the proteasome inhibitors MG132 at a final concentration of either 10 μM or 30 μM (A), or lactacystin at 10 μM (B) for 4 hours under conditions described in FIG. 3. These cells were then subjected to radiolabeling (30 min), cell lysis, and immunoprecipitation with anti-Hsp70 antibody. The experiments with MG132 (A) were repeated twice; the effects of lactacystin (B) were studied in triplicate culture dishes.
ALLN, leupeptin, mouse anti-human Hsp72/73 monoclonal antibody, a secondary antibody conjugated with horseradish peroxidase (HRP) (goat anti-rabbit immunoglubin G [IgG]), and rabbit anti-rat IgG antibody were from Boehringer Mannheim Co. Anti-Human Hsp25 and anti-human Hsp60 monoclonal antibodies, ALLM, Calpain inhibitor peptide (CIP), dimethyl sulfoxide (DMSO) and dithiothreitol (DTT) were from Sigma. Human Hsp70 oligonucleotide probe was from Oncogene Science. This oligonucleotide was ^32P labeled at the 5′-end by T4 Kinase, which was from Biolabs. ^32P was from ICN Pharmaceutical Inc. L-[4,5-^3H] leucine was from Amersham Co. Anti-human Bip (immunoglobulin heavy chain binding protein, also called Grp78), anti-human Hsp27, anti-human Hsp60, and anti-human Hsp90 monoclonal antibodies were from Stress Genes. Anti-human Hsp86 and Hsp104 antibodies were from Affinity Bioreagent Inc. Nitrocellular transfer and immobilization membranes were from Schleicher & Schuell, Keene, N.H. RNA extraction kits were from Biotect, Tex. The polyclonal antibody against the human HSF1 protein was a generous gift from Dr. Carl Wu of the National Institute of Health (Rabindran, et al., 1993). Ethylene glycol bis(succunimidylsuccinate) (EGS) was from Pierce. Cbz-leucyl-leucyl-leucinal (MG132) was a gift of Dr. H. Ploegh at the Massachusetts Institute of Technology. All the other tissue culture supplies and chemicals were obtained from supplies as previously described (Dixon, et al., 1991). The HepG2 cell culture conditions were maintained as previously described (Dixon, et al., 1991).

Hsp70 [2] = assay: Hsp70 induction in Chinese hamster ovary (CHO) cells; format: cell-based; details: data not shown

## CCCC[C@@H](C=O)NC(=O)[C@H](CC(C)C)NC(=O)[C@H](CC(C)C)NC(C)=O [ALLN, N-acetyl-leucyl-leucyl-norleucinal] (Ac-Leu-Leu-[Nle]-aldehyde)
Hsp70 [1]; HepG2, end of a 2-hour wash
  Hsp70 levels after removal of ALLN: 25 fold
Hsp70 [1]; HepG2, end of a 6-hour wash
  Hsp70 levels after removal of ALLN: 8 fold
Hsp70 [1]; HepG2, end of an 8-hour wash
  Hsp70 levels after removal of ALLN: 4 fold
Hsp70 [1]; HepG2, 30 min labeling, ALLN 40 μg/ml, data from several experiments
  increment of newly synthesized Hsp70 levels compared with untreated cells: ~30 fold
Hsp70 [1]; HepG2, 4 hours, different doses (FIG. 1)
  response of cellular Hsp70 levels to ALLN dose: dose-dependent response
Hsp70 [1]; HepG2, 4 h pre-treatment, ALLN 40, ALLM 40, leupeptin 50, pepstatin A 50, E-64d 25 μg/ml, PMSF 1 mM, aprotinin 100 KIU/ml
  induction of Hsp70 by protease inhibitors (FIG. 3A): significantly induce
Hsp70 [1]; HepG2, 4 h preincubation with ALLN 40 μg/ml, labeling 10-60 min, every time point
  increase in rate of incorporation of [3H]-leucine into Hsp70: about 25 fold
Hsp70 [1]; HepG2, low concentration of ALLN 10 μg/ml, 4 h pre-treatment
  Hsp70 levels induced: more than 9 fold
Hsp70 [1]; HepG2 cells and human endothelial cells
  induction of Hsp70 levels above baseline: up to 30 fold
Hsp70 [2]
  cellular Hsp70 levels: increasing cellular Hsp70 levels
